{"source": "patent EP1000624A1", "about": "“Use of DOP as antioxidant, anti-ageing additive and medicament” (priority 1998, dated 2000)", "key": {"acute toxicity, peroral": {"assay": "acute toxicity, peroral", "parameters": "species or system Ratte", "details": "in vivo, po, rat", "description": "Die akute Toxizität von DOP wurde peroral an der Ratte bestimmt; die letale Dosis, bei der 50% der Versuchstiere verenden (LD50), beträgt mehr als 2000 mg/kg."}, "[1]": {"tested_on": "Kornea, Iris und Konjunktiva", "assay": "eye irritation test according to EU Commission 93/21/EEC", "assay_type": "in vivo, Kaninchen", "details": "rabbit; effects on cornea, iris and conjunctiva after 24, 48 and 72 hours", "description": "(§1) Um festzustellen, ob DOP Reizungen der Augen oder der Haut hervorrufen kann, wurde am Kaninchen ein Augenreiztest und ein Hautreiztest durchgeführt, beide gemäß der Verordnung der EU-Kommission Nr. 93/21/EEC vom 27.04.1993."}, "Haut": {"tested_on": "Haut", "assay": "skin irritation test according to EU Commission 93/21/EEC", "assay_type": "in vivo, Kaninchen", "details": "rabbit; after 24, 48 and 72 hours", "description": "as §1"}}, "data": [{"smiles": "O=[PH]1Oc2ccccc2-c2ccccc21", "note": "(stereo not shown) [DOP, (6H)-Dibenz-(c,e)(1,2)-oxaphosphorin-6-on]", "values": [{"measurement": "LD50", "setting": "acute toxicity, peroral", "value": "> 2000", "unit": "mg/kg"}, {"measurement": "Augenreiztest: Einstufung", "setting": "[1]", "value": "nicht augenreizend"}, {"measurement": "Hautreiztest: Einstufung", "setting": "Haut", "value": "nicht hautreizend"}, {"measurement": "Hautreiztest: Erythembildung / Oedembildung", "setting": "Haut", "value": "weder eine Erythembildung noch eine Oedembildung"}]}]}
